Patent US6903113B2, “Urea substituted imidazopyridines” (3M Innovative Properties Company, priority 2000, dated 2005)
Structures can show the parent of a compound that is named as a salt.

Assays:
[1] = tested on: tumor necrosis factor (α); experiment: Cytokine Induction in Human Cells: tumor necrosis factor (α) by ELISA or IGEN Assay; assay type: cell-based; set-up: key to Lowest Effective Concentration Tumor Necrosis Factor: A “*” indicates that no induction was seen at any of the tested concentrations; conditions: human PBMC, 18 to 24 hours incubation, compounds generally tested at 30-0.014 μM; for minimal effective concentration: read-out: Lowest Effective Concentration Tumor Necrosis Factor
Excerpt: (§1) An in vitro human blood cell system is used to assess cytokine induction. Activity is based on the measurement of interferon and tumor necrosis factor (α) (IFN and TNF, respectively) secreted into culture media as described by Testerman et. al. In “Cytokine Induction by the Immunomodulators Imiquimod and S-27609”, Journal of Leukocyte Biology, 58, 365-372 (September, 1995).
(§2) Whole blood from healthy human donors is collected by venipuncture into EDTA vacutainer tubes. Peripheral blood mononuclear cells (PBMC) are separated from whole blood by density gradient centrifugation using Histopaque®-1077. Blood is diluted 1:1 with Dulbecco's Phosphate Buffered Saline (DPBS) or Hank's Balanced Salts Solution (HBSS). The PBMC layer is collected and washed twice with DPBS or HBSS and resuspended at 4×10^6 cells/mL in RPMI complete. The PBMC suspension is added to 48 well flat bottom sterile tissue culture plates (Costar, Cambridge, Mass. or Becton Dickinson Labware, Lincoln Park, N.J.) containing an equal volume of RPMI complete media containing test compound.
(§3) The compounds are solubilized in dimethyl sulfoxide (DMSO). The DMSO concentration should not exceed a final concentration of 1% for addition to the culture wells. The compounds are generally tested at concentrations ranging from 30-0.014 μM.
(§4) The solution of test compound is added at 60 μM to the first well containing RPMI complete and serial 3 fold dilutions are made in the wells. The PBMC suspension is then added to the wells in an equal volume, bringing the test compound concentrations to the desired range (30-0.014 μM). The final concentration of PBMC suspension is 2×10^6 cells/mL. The plates are covered with sterile plastic lids, mixed gently and then incubated for 18 to 24 hours at 37° C. in a 5% carbon dioxide atmosphere.
(§5) Following incubation the plates are centrifuged for 10 minutes at 1000 rpm (˜200×g) at 4° C. The cell-free culture supernatant is removed with a sterile polypropylene pipet and transferred to sterile polypropylene tubes. Samples are maintained at −30 to −70° C. until analysis. The samples are analyzed for interferon (α) by ELISA and for tumor necrosis factor (α) by ELISA or IGEN Assay
Tumor necrosis factor (α) (TNF) concentration is determined using ELISA kits available from Biosource International, Camarillo, Calif. Alternately, the TNF concentration can be determined by Origen® M-Series Immunoassay and read on an IGEN M-8 analyzer from IGEN International, Gaithersburg, Md. The immunoassay uses a human TNF capture and detection antibody pair from Biosource International, Camarillo, Calif. Results are expressed in pg/mL.
(§6) The table below lists the lowest concentration found to induce interferon and the lowest concentration found to induce tumor necrosis factor for each compound.

interferon (α) = experiment: Cytokine Induction in Human Cells: interferon (α) by ELISA; assay type: cell-based; conditions: human PBMC, 18 to 24 hours incubation, compounds generally tested at 30-0.014 μM; read-out: Lowest Effective Concentration Interferon
Excerpt: as §1, §2, §3, §4, §5
Interferon (α) concentration is determined by ELISA using a Human Multi-Species kit from PBL Biomedical Laboratories, New Brunswick, N.J. Results are expressed in pg/mL.
as §6

SMILES	melting point [°C]	minimal effective concentration [1] [µM]	minimal effective concentration (interferon (α)) [µM]	Lowest Effective Concentration Tumor Necrosis Factor [1]
CCOCc1nc2c(N)nc(C)cc2n1CCCCNC(=O)N1CCOCC1 (as salt: salt) [Example 10, N-{4-[4-amino-2-(ethoxymethyl)-6-methyl-1H-imidazo[4,5-c]pyridin-1-yl]butyl}morpholin-4-ylcarboxamide]	156.5 to 159.5	–	–	–
CCCCc1nc2c(N)nc(C)c(C)c2n1CCCCNS(=O)(=O)c1ccc(F)cc1 (hydrate or solvate) [Example 3, N-[4-(4-Amino-2-butyl-6,7-dimethyl-1H-imidazo[4,5-c]pyridin-1-yl)butyl]-4-fluorobenzenesulfonamide Hydrate]	133.1 to 133.7	–	–	–
CCCCc1nc2c(N)nc(C)c(C)c2n1CCCCNC(=S)Nc1ccccc1 (hydrate or solvate) [Example 5, N-[4-(4-Amino-2-butyl-6,7-dimethyl-1H-imidazo[4,5-c]pyridin-1-yl)butyl]-N′-phenylthiourea Hydrate]	160 to 160.8	–	–	–
CCCCc1nc2c(N)nc(C)c(C)c2n1CCCCNS(C)(=O)=O [Example 2, N-[4-(4-Amino-2-butyl-6,7-dimethyl-1H-imidazo[4,5-c]pyridin-1-yl)butyl]methanesulfonamide]	130 to 130.5	0.01	0.0046	–
CCCCc1nc2c(N)nc(C)c(C)c2n1CCCCNC(=O)Nc1ccccc1 [Example 4, N-[4-(4-Amino-2-butyl-6,7-dimethyl-1H-imidazo[4,5-c]pyridin-1-yl)butyl]-N′-phenylurea]	195.8 to 196.8	0.37	0.12	–
Cc1nc(N)c2ncn(CCCCNC(=O)N3CCOCC3)c2c1C [Example 11, N-[4-(4-amino-6,7-dimethyl-1H-imidazo[4,5-c]pyridin-1-yl)butyl]morpholin-4-ylcarboxamide]	163.7 to 167	–	–	–
CCOCc1nc2c(N)nc(C)c(C)c2n1CCC1CCN(C(=O)N2CCOCC2)CC1 [Example 12, 2-(ethoxymethyl)-6,7-dimethyl-1-{2-[1-(morpholin-4-ylcarbonyl)piperidin-4-yl]ethyl}-1H-imidazo[4,5-c]pyridin-4-amine]	158.1 to 160.5	–	–	–
Cc1nc(N)c2nc(C)n(CCCNC(=O)N3CCOCC3)c2c1C [Example 13, N-[3-(4-amino-2,6,7-trimethyl-1H-imidazo[4,5-c]pyridin-1-yl)propyl]morpholin-4-ylcarboxamide]	128.9 to 129.7	–	–	–
CCOCc1nc2c(N)nc(C)c(C)c2n1CCCNC(=O)N1CCOCC1 [Example 14, N-{3-[4-amino-2-(ethoxymethyl)-6,7-dimethyl-1H-imidazo[4,5-c]pyridin-1-yl]propyl}morpholin-4-ylcarboxamide]	140.5 to 142.2	–	–	–
Cc1nc(N)c2nc(C)n(CCNC(=O)N3CCOCC3)c2c1C [Example 15, N-[2-(4-amino-2,6,7-trimethyl-1H-imidazo[4,5-c]pyridin-1-yl)ethyl]morpholin-4-ylcarboxamide]	219 to 221	–	–	–
CCOCc1nc2c(N)nc(C)cc2n1CCCCNC(=S)NC(=O)c1ccco1 [Example 53, N-{4-[4-amino-2-(ethoxymethyl)-6-methyl-1H-imidazo[4,5-c]pyridin-1-yl]butyl}-N′-(2-furoyl)thiourea]	–	3.33	0.37	–
CCOCc1nc2c(N)nc(C)c(C)c2n1CCC1CCN(C(=O)NC(C)C)CC1 [Example 54]	–	3.33	1.11	–
CCOCc1nc2c(N)nc(C)c(C)c2n1CCC1CCN(C(=O)NC(C)(C)C)CC1 [Example 55]	–	10	3.33	–
CCCCNC(=O)N1CCC(CCn2c(COCC)nc3c(N)nc(C)c(C)c32)CC1 [Example 56]	–	3.33	1.11	–
CCOCc1nc2c(N)nc(C)c(C)c2n1CCC1CCN(C(=O)Nc2ccccc2)CC1 [Example 57]	–	1.11	0.37	–
CCOCc1nc2c(N)nc(C)c(C)c2n1CCC1CCN(C(=O)NC2CCCCC2)CC1 [Example 58]	–	3.33	0.37	–

SMILES	melting point [°C]	minimal effective concentration [1] [µM]	minimal effective concentration (interferon (α)) [µM]	Lowest Effective Concentration Tumor Necrosis Factor [1]
CCOCc1nc2c(N)nc(C)c(C)c2n1CCC1CCN(C(=O)NCC(=O)OCC)CC1 [Example 59]	–	10	1.11	–
CCOCc1nc2c(N)nc(C)c(C)c2n1CCC1CCN(C(=O)Nc2cccc(C#N)c2)CC1 [Example 60]	–	1.11	0.37	–
CCOCc1nc2c(N)nc(C)c(C)c2n1CCC1CCN(C(=O)Nc2cccc(OC)c2)CC1 [Example 61]	–	1.11	0.37	–
CCOCc1nc2c(N)nc(C)c(C)c2n1CCC1CCN(C(=O)Nc2cccc(C(C)=O)c2)CC1 [Example 62]	–	1.11	0.37	–
CCOCc1nc2c(N)nc(C)c(C)c2n1CCC1CCN(C(=O)Nc2ccc(N(C)C)cc2)CC1 [Example 63]	–	1.11	0.014	–
CCOCc1nc2c(N)nc(C)c(C)c2n1CCC1CCN(C(=O)Nc2cccc(SC)c2)CC1 [Example 64]	–	1.11	0.37	–
CCOCc1nc2c(N)nc(C)c(C)c2n1CCC1CCN(C(=O)Nc2ccc(OC)cc2OC)CC1 [Example 65]	–	1.11	0.37	–
CCOCc1nc2c(N)nc(C)c(C)c2n1CCC1CCN(C(=O)N2CCOCC2)CC1 [Example 66, 2-(ethoxymethyl)-6,7-dimethyl-1-{2-[1-(morpholin-4-ylcarbonyl)piperidin-4-yl]ethyl}-1H-imidazo[4,5-c]pyridin-4-amine]	–	10	1.11	–
CCOCc1nc2c(N)nc(C)c(C)c2n1CCC1CCN(C(=O)N(C)c2ccccc2)CC1 [Example 68, 4-{2-[4-amino-2-(ethoxymethyl)-6,7-dimethyl-1H-imidazo[4,5-c]pyridin-1-yl]ethyl}-N-methyl-N-phenylpiperidine-1-carboxamide]	–	1.11	0.37	–
CCOCc1nc2c(N)nc(C)c(C)c2n1CCC1CCN(C(=O)NS(=O)(=O)c2ccccc2)CC1 [Example 69]	–	–	3.33	*
CCOCc1nc2c(N)nc(C)c(C)c2n1CCC1CCN(C(=O)NS(=O)(=O)c2ccc(Cl)cc2)CC1 [Example 70]	–	–	10	*
CCOCc1nc2c(N)nc(C)c(C)c2n1CCC1CCN(C(=S)Nc2ccccc2)CC1 [Example 71]	–	3.33	0.37	–
CCOCc1nc2c(N)nc(C)c(C)c2n1CCC1CCN(C(=S)NCCc2ccccc2)CC1 [Example 72]	–	1.11	0.37	–
CCOCc1nc2c(N)nc(C)c(C)c2n1CCC1CCN(C(=S)Nc2ccc(OC)cc2)CC1 [Example 73]	–	1.11	0.12	–
CCOCc1nc2c(N)nc(C)c(C)c2n1CCC1CCN(C(=S)NC(=O)c2ccco2)CC1 [Example 74, N-[(4-{2-[4-amino-2-(ethoxymethyl)-6,7-dimethyl-1H-imidazo[4,5-c]pyridin-1-yl]ethyl}piperidin-1-yl)carbonothioyl]-2-furamide]	–	1.11	0.37	–
